From ChEMBL document CHEMBL3865848, “Macrocyclic Inhibitors of ERK2 Kinase” (ACS Med Chem Lett, 2016)

Molecular target: Mitogen-activated protein kinase 1 (Homo sapiens, UniProt P28482)
Sequence (P28482 whole entry): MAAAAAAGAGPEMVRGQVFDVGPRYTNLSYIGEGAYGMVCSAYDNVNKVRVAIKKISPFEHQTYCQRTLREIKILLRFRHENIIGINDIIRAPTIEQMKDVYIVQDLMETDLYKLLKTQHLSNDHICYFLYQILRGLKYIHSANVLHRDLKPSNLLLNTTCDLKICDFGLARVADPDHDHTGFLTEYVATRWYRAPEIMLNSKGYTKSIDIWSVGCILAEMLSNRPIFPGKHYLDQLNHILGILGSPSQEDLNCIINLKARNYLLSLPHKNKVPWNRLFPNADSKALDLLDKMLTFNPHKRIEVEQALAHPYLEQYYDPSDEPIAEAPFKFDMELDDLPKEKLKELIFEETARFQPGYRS
Description: Inhibition of human activated ERK2 assessed as reduction in phosphorylation activity preincubated for 15 mins followed by addition of IMAP peptide as substrate and ATP measured after 60 mins by fluorescence polarization method

| IC50 | Structure (SMILES) |
| --- | --- |
| 118 nM | CCn1ncc2cc3nc(c21)CCCO[C@@H](O)[C@H](c1ccccc1)NC(=O)N3 |
| 24.3 nM | CCn1ncc2cc3nc(c21)CCCO[C@H](O)[C@H](c1ccccc1)NC(=O)N3 |
